Assay results as given in ChEMBL document CHEMBL1201862, “PubChem BioAssay data set” (2004).
The source made the active and inactive calls.

Experiments:
[1] = target: Ubiquitin carboxyl-terminal hydrolase BAP1 (Homo sapiens, UniProt Q92560); assay: inhibition of BAP1 ubiquitin hydrolase activity – biochemical, dose response (AID 714); format: functional
[2] = Luminescence Cell-Based Dose Confirmation HTS to Identify Activators of 5'UTR Stem-Loop Driven Alpha-Synuclein mRNA Translation in H4 Neuroglioblastoma Cells. [Related pubchem assays: 1829 (Project Summary), 1814 (Primary HTS)]; format: functional
[3] = Luminescence Cell-Based Dose Confirmation to Identify Activators of 5'UTR Stem-Loop Driven Alpha-Synuclein mRNA Translation in H4 Neuroglioblastoma Cells. [Related pubchem assays: 1829 (Project Summary), 1814 (Primary HTS)]; format: functional
[4] = Luminescence Cell-Based Dose Response to Identify Activators of 5'UTR Stem-Loop Driven Prion Protein mRNA Translation in H4-C Neuroglioblastoma Cells. [Related pubchem assays: 1829 (Project Summary), 1814 (Primary HTS)]; format: functional
H4 = assay: Luminescence Cell-Based Dose Response HTS to Identify Activators of 5'UTR Stem-Loop Driven Prion Protein mRNA Translation in H4 Neuroglioblastoma Cells. [Related pubchem assays: 1829 (Project Summary), 1814 (Primary HTS)]; format: functional; settings: Homo sapiens
[5] = Luminescence Cell-Based Dose Response HTS to Identify Activators of Luciferase Translation or Activity in H4 […] Cells. [Related pubchem assays: 1829 (Project Summary), 1814 (Primary HTS)]; format: functional
[6] = Luminescence Cell-Based Dose Response to Identify Activators of Luciferase Translation or Activity in H4-C Neuroglioblastoma Cells. [Related pubchem assays: 1829 (Project Summary), 1814 (Primary HTS)]; format: functional
Aminopeptidase N = target: T1, Aminopeptidase N (Plasmodium falciparum FcB1/Columbia, UniProt O96935); assay: malaria alanyl aminopeptidase activity blockers – biochemical, fluorogenic H-Leu-NHMec substrate, 1536-well (AID 1445); design: species or system Plasmodium falciparum 3D7, 3D7
T1 sequence (O96935 whole entry): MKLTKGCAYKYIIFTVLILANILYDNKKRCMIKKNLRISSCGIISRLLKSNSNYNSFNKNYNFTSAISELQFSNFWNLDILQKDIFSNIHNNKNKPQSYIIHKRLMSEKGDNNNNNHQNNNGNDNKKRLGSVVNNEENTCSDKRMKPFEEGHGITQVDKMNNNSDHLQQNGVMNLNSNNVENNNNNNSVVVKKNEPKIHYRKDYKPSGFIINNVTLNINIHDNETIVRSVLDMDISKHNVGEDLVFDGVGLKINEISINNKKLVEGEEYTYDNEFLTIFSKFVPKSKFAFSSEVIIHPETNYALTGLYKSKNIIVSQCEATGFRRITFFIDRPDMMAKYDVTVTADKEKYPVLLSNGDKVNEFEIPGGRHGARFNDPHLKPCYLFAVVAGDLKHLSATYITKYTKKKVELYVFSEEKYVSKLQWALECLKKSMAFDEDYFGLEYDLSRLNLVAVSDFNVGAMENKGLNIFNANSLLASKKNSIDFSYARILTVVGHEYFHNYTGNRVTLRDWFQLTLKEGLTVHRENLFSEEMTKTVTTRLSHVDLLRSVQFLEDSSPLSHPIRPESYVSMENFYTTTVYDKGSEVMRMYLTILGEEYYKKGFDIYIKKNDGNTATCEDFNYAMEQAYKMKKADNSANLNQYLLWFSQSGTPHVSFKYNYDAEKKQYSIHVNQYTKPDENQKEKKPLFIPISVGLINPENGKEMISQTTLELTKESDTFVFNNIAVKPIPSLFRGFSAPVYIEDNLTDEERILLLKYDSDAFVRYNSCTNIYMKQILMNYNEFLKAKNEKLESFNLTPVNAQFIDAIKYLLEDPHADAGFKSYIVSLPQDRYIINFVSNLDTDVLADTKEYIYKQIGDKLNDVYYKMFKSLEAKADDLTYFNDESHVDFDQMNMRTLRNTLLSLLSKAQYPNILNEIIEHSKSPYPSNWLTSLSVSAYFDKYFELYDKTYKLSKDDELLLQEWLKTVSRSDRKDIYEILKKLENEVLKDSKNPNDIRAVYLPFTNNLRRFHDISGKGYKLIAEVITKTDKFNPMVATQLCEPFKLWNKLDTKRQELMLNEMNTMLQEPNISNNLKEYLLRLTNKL

[7] = target: T2, High affinity choline transporter 1 (Homo sapiens, UniProt Q9GZV3); assay: human choline transporter blockers, potency – cell-based, 5-point CRC, membrane potential dye, dose response (AID 504840); format: functional
T2 sequence (Q9GZV3 whole entry): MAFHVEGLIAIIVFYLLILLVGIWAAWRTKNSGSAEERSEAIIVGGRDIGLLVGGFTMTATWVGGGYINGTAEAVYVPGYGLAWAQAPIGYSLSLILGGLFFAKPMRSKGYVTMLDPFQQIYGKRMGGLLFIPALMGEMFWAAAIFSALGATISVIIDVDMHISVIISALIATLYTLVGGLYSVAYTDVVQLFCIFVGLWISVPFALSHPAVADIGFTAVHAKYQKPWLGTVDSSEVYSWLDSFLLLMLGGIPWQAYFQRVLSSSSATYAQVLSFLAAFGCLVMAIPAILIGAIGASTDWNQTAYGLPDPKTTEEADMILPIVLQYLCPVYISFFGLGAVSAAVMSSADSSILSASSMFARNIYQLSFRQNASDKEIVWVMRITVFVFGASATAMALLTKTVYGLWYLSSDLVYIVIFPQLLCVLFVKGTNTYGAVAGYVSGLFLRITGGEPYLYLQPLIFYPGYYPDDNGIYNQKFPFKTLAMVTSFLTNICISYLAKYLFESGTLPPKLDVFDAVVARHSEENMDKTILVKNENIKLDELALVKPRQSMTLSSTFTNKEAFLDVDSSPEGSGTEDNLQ

Vero [8] = assay: viability of Vero cells under compound – cytotoxicity control for flavivirus capping enzyme inhibitors (AID 588742); format: functional; settings: Chlorocebus sabaeus
[9] = target: T3, Long-chain-fatty-acid--AMP ligase FadD28 (Mycobacterium tuberculosis, UniProt P9WQ59); assay: Fluorescence polarization aasay to screen for inhibitors that compete for the binding of FadD28 to a bisubstrate Measured in Biochemical System Using Plate Reader - 2147-01_Inhibitor_Dose_CherryPick_Activity.; format: functional, Mycobacterium tuberculosis H37Rv
T3 sequence (P9WQ59 whole entry): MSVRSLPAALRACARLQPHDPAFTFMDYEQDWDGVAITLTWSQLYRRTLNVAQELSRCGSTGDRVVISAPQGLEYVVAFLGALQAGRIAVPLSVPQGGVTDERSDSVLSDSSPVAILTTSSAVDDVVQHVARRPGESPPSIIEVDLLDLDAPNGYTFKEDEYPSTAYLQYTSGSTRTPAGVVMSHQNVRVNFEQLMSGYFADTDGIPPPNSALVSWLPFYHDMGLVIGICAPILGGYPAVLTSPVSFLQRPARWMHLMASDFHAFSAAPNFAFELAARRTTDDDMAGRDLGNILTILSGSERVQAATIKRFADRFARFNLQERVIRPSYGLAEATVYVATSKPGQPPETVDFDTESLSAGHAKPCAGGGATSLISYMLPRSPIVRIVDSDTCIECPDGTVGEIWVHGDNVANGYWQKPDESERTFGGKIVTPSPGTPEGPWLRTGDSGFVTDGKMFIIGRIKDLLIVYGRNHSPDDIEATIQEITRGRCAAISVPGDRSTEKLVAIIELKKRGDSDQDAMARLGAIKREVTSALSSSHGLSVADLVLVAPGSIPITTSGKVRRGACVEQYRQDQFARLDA

[10] = target: Induced myeloid leukemia cell differentiation protein Mcl-1 (Homo sapiens, UniProt Q07820); format: functional
Vero [11] = assay: cells; format: functional; settings: Chlorocebus sabaeus
Genome polyprotein = Genome polyprotein (dengue virus type 2, UniProt P29990); assay: flavivirus cap methylation enzyme inhibition – biochemical, confirmation dose response, primary screen (AID 588689); format: functional
[12] = target: Bifunctional protein GlmU (Mycobacterium tuberculosis, UniProt P9WMN3); assay: Inhibitors of Mycobacterial Glucosamine-1-phosphate acetyl transferase (GlmU). Secondary screen.; design: species or system Mycobacterium tuberculosis H37Rv
Large T antigen = Large T antigen (Simian virus 40, UniProt P03070); format: functional, Betapolyomavirus macacae;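 further: Confirmatory-stage PubChem screen for compounds that inhibit SV40 T antigen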
Nonstructural protein 1 = Nonstructural protein 1 (Influenza A virus, UniProt Q194T2); format: functional, Influenza A virus (A/California/07/2009(H1N1))
[13] = target: E3 ubiquitin-protein ligase Mdm2 (Homo sapiens, UniProt Q00987); assay: MDM2-luc reporter signal enhancers, multi-concentration potency testing, MDM2 ubiquitin-protein ligase inhibitor program, whole-cell format, luminescence detection, 384-well microplate (AID 1394); format: functional;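 further: MDM2 E3 inhibitors raise luminescence so EC50 is for signal enhancement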
[14] = target: Heat shock protein HSP 90-alpha (Homo sapiens, UniProt P07900); format: functional, organism-based
[15] = fluconazole-exposed Candida albicans growth modulators – fluorescence, retest, confirmation (AID 2467); format: functional, cell-based
[16] = viability of HCT116 lacking mutant beta-catenin – cell-based, human colon tumor, dose response (AID 1045); format: functional;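 further: HCT116 colon tumor cells with beta catenin knocked out; cells exposed to compound for 60 hours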
[17] = target: Glucose-6-phosphate 1-dehydrogenase (Homo sapiens, UniProt P11413); assay: inhibition of Homo sapiens G6PD, dose series – biochemical, fluorescence, selectivity assay for P. falciparum G6PD inhibitor project, dose response (AID 504792); format: functional
Beta-galactosidase = Beta-galactosidase (Escherichia coli, UniProt Q8VNN2); assay: PubChem AID 485352; format: functional
[18] = viability of PTEN-deleted HCT116 cells – cell-based, HCT116 PTEN knockout, dose response (AID 1047); format: functional;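 further: HCT116 colon tumor cells with PTEN knocked out; cells exposed to compound for 60 hours before readout; potency for loss of cell viability measured by luminescence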
[19] = NIH-3T3 fibroblast cytotoxicity, dose response, cytotoxicity control, cell-based, fluorescence, Alamar Blue, secondary assay (AID 2327); format: functional;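 further: NIH-3T3 mouse fibroblasts cultured with fluconazole at 8 µg/mL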
[20] = target: T4, Type-1 angiotensin II receptor (Homo sapiens, UniProt P30556); assay: antagonism of angiotensin II type 1 receptor – cell-based, uHTS hits, selectivity assay for APJ receptor antagonist project, dose response (AID 463214); format: functional;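 further: antagonist potency against angiotensin II stimulated AT1 response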
T4 sequence (P30556 whole entry): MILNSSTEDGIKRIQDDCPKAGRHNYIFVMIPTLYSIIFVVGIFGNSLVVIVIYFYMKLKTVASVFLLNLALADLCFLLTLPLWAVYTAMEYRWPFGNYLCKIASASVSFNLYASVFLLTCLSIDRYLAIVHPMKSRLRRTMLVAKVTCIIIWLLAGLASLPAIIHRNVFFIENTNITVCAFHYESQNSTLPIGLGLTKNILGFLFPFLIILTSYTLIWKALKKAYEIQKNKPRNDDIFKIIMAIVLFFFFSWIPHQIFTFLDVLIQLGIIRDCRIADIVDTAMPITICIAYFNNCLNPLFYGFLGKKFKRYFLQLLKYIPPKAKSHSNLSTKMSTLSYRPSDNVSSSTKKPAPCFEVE

[21] = target: Aryl hydrocarbon receptor (Homo sapiens, UniProt P35869); assay: Luminescence-based cell-based high throughput dose response assay for activators of the Aryl Hydrocarbon Receptor (AHR). [Related pubchem assays: 2796 (Primary screen (AHR activators in singlicate)), 2845 (Confirmation screen (AHR activators in triplicate)), 434939 (Counterscreen (PXR activators in triplicate)), 2804 (Summary (AHR activators))]; format: ADME
Aryl hydrocarbon receptor, sequence (P35869 whole entry): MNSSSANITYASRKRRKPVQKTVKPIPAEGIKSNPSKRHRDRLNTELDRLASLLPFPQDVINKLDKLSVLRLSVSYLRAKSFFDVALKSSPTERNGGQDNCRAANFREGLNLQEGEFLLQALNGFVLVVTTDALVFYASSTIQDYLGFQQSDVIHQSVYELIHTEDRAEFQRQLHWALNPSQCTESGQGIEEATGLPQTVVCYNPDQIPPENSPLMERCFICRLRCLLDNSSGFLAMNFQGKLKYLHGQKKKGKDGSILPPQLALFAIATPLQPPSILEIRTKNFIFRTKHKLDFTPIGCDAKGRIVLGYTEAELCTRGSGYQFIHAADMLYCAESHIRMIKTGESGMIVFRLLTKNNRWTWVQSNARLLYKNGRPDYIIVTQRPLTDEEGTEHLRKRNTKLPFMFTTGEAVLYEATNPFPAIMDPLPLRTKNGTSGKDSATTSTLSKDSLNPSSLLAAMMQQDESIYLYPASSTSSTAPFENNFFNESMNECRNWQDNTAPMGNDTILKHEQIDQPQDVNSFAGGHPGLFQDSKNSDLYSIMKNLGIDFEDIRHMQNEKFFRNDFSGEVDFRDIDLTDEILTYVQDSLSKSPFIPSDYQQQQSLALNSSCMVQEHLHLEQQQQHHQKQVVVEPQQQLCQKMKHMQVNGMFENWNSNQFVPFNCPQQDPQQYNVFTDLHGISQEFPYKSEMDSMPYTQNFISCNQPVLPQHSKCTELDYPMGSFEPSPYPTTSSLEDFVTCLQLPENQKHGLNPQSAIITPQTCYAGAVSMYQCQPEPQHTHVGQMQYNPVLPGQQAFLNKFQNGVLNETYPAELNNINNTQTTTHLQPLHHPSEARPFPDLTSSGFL

Bifunctional protein GlmU, sequence (P9WMN3 whole entry): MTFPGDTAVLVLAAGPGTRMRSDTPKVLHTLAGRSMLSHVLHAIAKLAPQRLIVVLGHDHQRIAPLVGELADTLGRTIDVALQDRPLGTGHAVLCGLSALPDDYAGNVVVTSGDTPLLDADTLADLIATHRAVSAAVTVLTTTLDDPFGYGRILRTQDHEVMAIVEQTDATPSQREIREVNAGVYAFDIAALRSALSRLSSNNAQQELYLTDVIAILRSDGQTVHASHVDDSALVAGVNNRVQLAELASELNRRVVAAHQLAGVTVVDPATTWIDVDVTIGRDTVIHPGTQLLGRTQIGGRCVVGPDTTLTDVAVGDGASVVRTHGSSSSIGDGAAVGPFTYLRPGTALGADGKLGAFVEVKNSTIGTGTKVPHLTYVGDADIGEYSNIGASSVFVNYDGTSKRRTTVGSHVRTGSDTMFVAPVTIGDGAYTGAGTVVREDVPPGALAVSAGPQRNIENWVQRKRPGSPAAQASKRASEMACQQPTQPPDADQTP
E3 ubiquitin-protein ligase Mdm2, sequence (Q00987 whole entry): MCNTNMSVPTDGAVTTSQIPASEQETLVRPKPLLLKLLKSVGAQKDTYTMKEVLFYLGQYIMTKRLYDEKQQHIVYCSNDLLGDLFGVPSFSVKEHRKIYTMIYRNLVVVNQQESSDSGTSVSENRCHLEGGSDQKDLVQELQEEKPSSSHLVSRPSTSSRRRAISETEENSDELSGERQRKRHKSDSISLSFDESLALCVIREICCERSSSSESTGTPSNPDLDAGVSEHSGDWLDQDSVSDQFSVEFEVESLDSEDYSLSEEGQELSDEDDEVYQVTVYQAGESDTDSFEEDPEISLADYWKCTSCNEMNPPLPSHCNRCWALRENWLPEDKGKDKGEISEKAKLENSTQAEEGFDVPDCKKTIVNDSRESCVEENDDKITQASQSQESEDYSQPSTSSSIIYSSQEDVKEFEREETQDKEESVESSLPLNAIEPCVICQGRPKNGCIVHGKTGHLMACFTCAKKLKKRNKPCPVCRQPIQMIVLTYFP
Large T antigen, sequence (P03070 whole entry): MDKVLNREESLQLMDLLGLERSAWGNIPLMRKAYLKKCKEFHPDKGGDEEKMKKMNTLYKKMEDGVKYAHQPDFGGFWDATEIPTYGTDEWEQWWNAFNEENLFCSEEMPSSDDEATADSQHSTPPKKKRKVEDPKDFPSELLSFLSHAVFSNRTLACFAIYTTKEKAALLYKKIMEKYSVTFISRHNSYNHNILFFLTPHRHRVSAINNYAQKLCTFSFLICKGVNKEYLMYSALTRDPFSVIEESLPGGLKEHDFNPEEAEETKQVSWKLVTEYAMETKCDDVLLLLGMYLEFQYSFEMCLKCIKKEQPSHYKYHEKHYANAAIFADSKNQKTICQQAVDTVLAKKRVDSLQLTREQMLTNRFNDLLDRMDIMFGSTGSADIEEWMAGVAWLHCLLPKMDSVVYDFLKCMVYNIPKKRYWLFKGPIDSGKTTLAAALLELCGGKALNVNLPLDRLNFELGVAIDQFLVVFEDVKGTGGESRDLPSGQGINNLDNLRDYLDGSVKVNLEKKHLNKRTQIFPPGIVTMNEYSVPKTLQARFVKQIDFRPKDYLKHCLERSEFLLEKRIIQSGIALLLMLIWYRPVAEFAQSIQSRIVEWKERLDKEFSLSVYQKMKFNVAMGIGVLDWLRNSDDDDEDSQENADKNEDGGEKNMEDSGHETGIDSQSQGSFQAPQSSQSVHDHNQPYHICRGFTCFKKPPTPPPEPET
Ubiquitin carboxyl-terminal hydrolase BAP1, sequence (Q92560 whole entry): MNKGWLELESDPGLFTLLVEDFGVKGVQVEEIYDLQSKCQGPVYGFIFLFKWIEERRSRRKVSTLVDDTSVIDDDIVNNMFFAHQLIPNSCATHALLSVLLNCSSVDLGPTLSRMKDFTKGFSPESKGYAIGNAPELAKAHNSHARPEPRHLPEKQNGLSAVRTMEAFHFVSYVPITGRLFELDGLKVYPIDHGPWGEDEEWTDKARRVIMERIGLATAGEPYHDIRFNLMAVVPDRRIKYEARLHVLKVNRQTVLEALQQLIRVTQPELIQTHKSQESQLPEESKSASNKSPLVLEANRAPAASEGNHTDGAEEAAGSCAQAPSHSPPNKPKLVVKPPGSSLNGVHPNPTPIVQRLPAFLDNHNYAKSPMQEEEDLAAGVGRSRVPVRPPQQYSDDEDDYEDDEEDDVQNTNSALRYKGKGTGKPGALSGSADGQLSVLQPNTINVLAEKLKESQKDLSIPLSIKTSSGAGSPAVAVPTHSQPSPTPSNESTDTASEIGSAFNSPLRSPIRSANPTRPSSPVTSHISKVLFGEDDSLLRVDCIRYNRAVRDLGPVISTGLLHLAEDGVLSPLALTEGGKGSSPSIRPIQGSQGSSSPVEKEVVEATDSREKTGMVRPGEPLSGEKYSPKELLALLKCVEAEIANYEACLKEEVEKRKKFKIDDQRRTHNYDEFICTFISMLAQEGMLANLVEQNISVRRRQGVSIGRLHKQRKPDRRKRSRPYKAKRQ
Genome polyprotein, sequence (P29990 2492-3391 limits assumed): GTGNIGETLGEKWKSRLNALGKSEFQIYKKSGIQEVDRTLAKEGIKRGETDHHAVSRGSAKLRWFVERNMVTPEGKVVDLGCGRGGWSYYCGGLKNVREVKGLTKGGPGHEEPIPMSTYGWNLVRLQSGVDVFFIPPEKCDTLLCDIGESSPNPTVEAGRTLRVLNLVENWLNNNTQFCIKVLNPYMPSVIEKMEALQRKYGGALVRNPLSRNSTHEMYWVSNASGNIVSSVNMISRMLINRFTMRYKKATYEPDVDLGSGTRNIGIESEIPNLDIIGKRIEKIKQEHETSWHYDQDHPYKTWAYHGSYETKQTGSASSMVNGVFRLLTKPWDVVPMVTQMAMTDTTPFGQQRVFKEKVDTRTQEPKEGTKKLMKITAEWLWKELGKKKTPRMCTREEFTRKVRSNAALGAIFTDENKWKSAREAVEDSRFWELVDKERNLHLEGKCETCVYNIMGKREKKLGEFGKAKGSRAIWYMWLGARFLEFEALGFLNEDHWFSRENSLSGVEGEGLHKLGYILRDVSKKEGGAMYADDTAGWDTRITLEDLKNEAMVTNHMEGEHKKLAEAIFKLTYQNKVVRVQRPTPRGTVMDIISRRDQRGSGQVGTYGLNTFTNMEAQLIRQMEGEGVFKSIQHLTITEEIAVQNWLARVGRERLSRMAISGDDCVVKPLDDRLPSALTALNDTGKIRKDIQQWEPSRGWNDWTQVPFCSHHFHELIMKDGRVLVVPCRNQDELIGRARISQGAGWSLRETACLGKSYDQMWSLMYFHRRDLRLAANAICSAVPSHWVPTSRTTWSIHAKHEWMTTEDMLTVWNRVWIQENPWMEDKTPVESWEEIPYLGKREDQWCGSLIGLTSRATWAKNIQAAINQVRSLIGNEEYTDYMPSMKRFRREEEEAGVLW
Glucose-6-phosphate 1-dehydrogenase, sequence (P11413 whole entry): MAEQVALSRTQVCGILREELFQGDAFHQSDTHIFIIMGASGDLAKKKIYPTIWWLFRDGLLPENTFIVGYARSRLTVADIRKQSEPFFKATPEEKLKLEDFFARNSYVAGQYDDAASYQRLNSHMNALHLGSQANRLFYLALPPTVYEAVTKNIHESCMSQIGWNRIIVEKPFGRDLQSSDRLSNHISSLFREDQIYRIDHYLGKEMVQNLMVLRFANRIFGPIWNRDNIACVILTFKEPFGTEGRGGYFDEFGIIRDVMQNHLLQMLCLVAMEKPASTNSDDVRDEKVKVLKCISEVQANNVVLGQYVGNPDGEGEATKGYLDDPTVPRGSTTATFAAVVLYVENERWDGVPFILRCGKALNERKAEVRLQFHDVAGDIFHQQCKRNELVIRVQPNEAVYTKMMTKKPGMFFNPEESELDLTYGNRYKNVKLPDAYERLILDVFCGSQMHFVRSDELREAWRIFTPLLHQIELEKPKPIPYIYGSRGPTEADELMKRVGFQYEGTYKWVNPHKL
Induced myeloid leukemia cell differentiation protein Mcl-1, sequence (Q07820 whole entry): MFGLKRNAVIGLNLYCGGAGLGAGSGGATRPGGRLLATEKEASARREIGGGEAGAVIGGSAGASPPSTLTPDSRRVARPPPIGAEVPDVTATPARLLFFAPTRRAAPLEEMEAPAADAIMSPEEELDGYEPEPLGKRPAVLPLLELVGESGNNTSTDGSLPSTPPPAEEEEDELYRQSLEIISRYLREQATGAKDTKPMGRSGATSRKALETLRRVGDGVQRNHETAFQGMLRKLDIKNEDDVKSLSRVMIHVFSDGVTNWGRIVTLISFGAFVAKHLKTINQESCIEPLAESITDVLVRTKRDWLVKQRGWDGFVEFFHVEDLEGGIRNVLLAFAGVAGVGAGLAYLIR

COc1ccc(NC(=O)c2c(NC(=O)CNCc3ccco3)sc3c2CCC3)c(OC)c1
IC50 [1]: 35.8 µM (not active)

Cc1oc2cc3c(C(=O)N4CCCCC4)c(C)oc3cc2c1C(=O)N1CCCCC1
EC50 [2]: < 0.1 µM (active)
EC50 [3]: 0.598 µM (active)
EC50 [4]: > 12 µM (not active)
EC50 (H4): > 120 µM (not active)
EC50 [5]: 12.2 µM (active)
EC50 [6]: 0.573 µM (active)

COc1cc(/C=C2/C(=O)c3cccc([N+](=O)[O-])c3C2=O)c(Br)cc1O
IC50 (Aminopeptidase N): 5.94 µM (active)
IC50 [7]: 9.13 µM (active)
CC50 (Vero [8]): 34 µM (active)
AC50 [9]: > 100 µM (inactive)
IC50 [10]: 1.39 µM (active)
CC50 (Vero [11]): 16.4 µM (active)
IC50 (Genome polyprotein): 7.44 µM (active)
IC50 [12]: 60.9 µM (active)
IC50 (Large T antigen): 13.9 µM (active)
IC50 (Nonstructural protein 1): 20.9 µM (active)

O=C(Nc1ccc(F)cc1)c1ccccc1S(=O)(=O)c1ccccc1[N+](=O)[O-]
EC50 [13]: 0.53 µM (not active)

CCN(CC)C(=S)SSC(=S)N(CC)CC
AC50 [14]: 5.18 µM (active)
EC50 [15]: 2.43 µM (active)
EC50 [16]: 0.091 µM (active)
IC50 [17]: > 80 µM (inactive)
EC50 (Beta-galactosidase): > 40 µM (inactive)
EC50 [18]: 0.087 µM (active)
CC50 (Vero [11]): > 25 µM (active)
EC50 [19]: > 160 µM (inconclusive)
IC50 [20]: 6.64 µM (active)
IC50 [12]: 85 µM (active)
IC50 (Large T antigen): 10.7 µM (active)

COCC(=O)N1CCc2ccc(NC(=O)c3ccc(C(F)(F)F)cc3)cc2C1
EC50 [21]: > 1.13 µM (active)

COc1ccc(Cl)cc1C(=O)Nc1ccc(N(C)C(C)=O)cc1
EC50 [21]: 2.81 µM (active)

Cc1cc(C)c(S(=O)(=O)c2ccccc2)c(OC(=O)c2cc(F)c(F)cc2Cl)n1
EC50 [13]: 186 µM (not active)

Cc1cc(C(=O)CSc2nc3ccccc3o2)c(C)n1CC1CCCO1 (configuration not stated)
EC50 [3]: 0.21 µM (active)
EC50 [4]: 0.323 µM (active)
EC50 (H4): < 0.1 µM (active)
EC50 [6]: 0.231 µM (active)

O=S(=O)(c1cccc(S(=O)(=O)N2CCC(n3nnc4ccccc43)CC2)c1)N1CCCCC1
IC50 [1]: 18.3 µM (active)
